Data as given in patent publication US11964953B2, “Substituted aminothiazoles as DGKzeta inhibitors for immune activation” (Bayer Aktiengesellschaft, priority 2020, dated 2024).

biological target: human DGKζ (Homo sapiens (Human), UniProt Q13574); experiment: Human DGKζ kinase activity inhibition assay (ADP-Glo); format: biochemical; details: in vitro human DGKζ kinase activity inhibition assay; read-out: IC50
Protocol: Human DGKζ Kinase Activity Inhibition Assay. Human diacylglycerol kinase zeta (DGKζ) inhibitory activity of compounds of the present invention was quantified employing the human DGKζ kinase activity assay as described in the following paragraphs. In essence, the enzyme activity was measured by quantification of the adenosine-di-phosphate (ADP) generated as a co-product of the enzyme reaction via the “ADP-Glo™ Kinase Assay” kit from the company Promega. This detection system works as follows: In a first step the adenosine-tri-phosphate (ATP) not consumed in the kinase reaction is quantitatively converted to cyclic adenosine-mono-phosphate (cAMP) employing an adenylate cyclase (“ADP-Glo-reagent”), then the adenylate cyclase is stopped and the ADP generated in the kinase reaction is converted to ATP, which subsequently generates in a luciferase-based reaction a glow-luminescence signal (“Kinase Detection Reagent”). C-terminally FLAG-tagged, recombinant full-length human DGKζ (in house expressed in baculovirus infected insect cells, purified using anti-Flag pulldown and size exclusion chromatography) was used as enzyme. As an alternative, commercially available enzyme by Carnabio can be used. […] Subsequently, 22.55 volumes of a 510 mM solution of octyl-β-D-glucopyranoside (Sigma-Aldrich, Cat. #O8001-10G) in 50 mM MOPS buffer (pH 7.4) were added, and the mixture was sonicated in an ultrasonic bath for 20 s. […] Viewlux™ from Perkin-Elmer). The amount of emitted light was taken as a measure for the amount of ADP generated and thereby for the activity of the DGKζ.

Sequence of human DGKζ (Q13574 other isoform, or with tags, fused parts or gaps): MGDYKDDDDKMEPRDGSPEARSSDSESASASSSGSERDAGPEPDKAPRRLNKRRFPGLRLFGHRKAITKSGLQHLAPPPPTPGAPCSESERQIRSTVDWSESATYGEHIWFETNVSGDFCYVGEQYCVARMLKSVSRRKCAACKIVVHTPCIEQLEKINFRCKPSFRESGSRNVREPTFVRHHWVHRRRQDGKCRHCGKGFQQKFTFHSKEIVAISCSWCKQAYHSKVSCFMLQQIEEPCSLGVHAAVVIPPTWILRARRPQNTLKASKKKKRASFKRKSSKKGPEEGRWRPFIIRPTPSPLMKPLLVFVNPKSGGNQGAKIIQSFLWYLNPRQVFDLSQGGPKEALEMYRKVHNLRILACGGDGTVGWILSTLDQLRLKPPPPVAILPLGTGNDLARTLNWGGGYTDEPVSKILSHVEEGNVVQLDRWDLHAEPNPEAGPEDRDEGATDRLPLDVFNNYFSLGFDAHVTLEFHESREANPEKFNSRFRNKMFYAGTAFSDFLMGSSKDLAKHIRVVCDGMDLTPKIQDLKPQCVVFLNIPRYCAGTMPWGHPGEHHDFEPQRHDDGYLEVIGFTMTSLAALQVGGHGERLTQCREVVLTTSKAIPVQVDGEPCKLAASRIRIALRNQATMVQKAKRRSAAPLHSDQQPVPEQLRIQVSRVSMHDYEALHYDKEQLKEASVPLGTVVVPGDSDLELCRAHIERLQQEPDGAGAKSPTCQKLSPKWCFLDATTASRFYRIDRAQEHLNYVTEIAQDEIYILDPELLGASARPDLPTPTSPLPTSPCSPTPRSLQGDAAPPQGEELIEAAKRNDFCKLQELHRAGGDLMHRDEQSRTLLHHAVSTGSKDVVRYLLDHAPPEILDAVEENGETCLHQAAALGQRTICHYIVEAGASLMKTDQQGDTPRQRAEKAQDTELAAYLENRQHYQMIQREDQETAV

SMILES | IC50 [nM]
CC(C(N)=O)N(c1nc(N)c(C(=O)c2ccccc2)s1)c1ccc(F)cc1F (racemic) [Example 65, rac-2-(N-(4-amino-5-benzoyl-thiazol-2-yl)-2,4-difluoro-anilino)propanamide] | 101
COc1ccc(N(c2nc(N)c(C(=O)c3ccccc3)s2)C(C)C(N)=O)cc1 (racemic) [Example 66, rac-2-(N-(4-amino-5-benzoyl-thiazol-2-yl)-4-methoxy-anilino)propanamide] | 363
CCC(C(N)=O)N(c1ccccc1)c1nc(N)c(C(=O)c2ccccc2)s1 (racemic) [Example 67, rac-2-[(4-amino-5-benzoyl-1,3-thiazol-2-yl)(phenyl)amino]butanamide] | 2270
CCC(C(N)=O)N(c1ccc(F)cc1)c1nc(N)c(C(=O)c2ccccc2)s1 (racemic) [Example 68, rac-2-[(4-amino-5-benzoyl-1,3-thiazol-2-yl)(4-fluorophenyl)amino]butanamide] | 457
CC(Oc1ccc(C(=O)c2sc(N(c3ccc(F)cc3)C(C)C(N)=O)nc2N)cc1)C(N)=O (racemic) [Example 69, 2-(N-[4-amino-5-[4-(2-amino-1-methyl-2-oxo-ethoxy)benzoyl]thiazol-2-yl]-4-fluoro-anilino)propanamide] | 64.1
CCC(C(N)=O)N(c1ccc(F)cc1)c1nc(N)c(C(=O)c2ccc(OC)cc2)s1 (racemic) [Example 70, rac-2-{[4-amino-5-(4-methoxybenzoyl)-1,3-thiazol-2-yl](4-fluorophenyl)amino}butanamide] | 196
Cc1ccc(N(c2nc(N)c(C(=O)c3ccccc3)s2)C(C)C(N)=O)cc1 (racemic) [Example 73, rac-2-(N-(4-amino-5-benzoyl-thiazol-2-yl)-4-methyl-anilino)propanamide] | 148
CC(C(N)=O)N(c1cccc(F)c1)c1nc(N)c(C(=O)c2ccccc2)s1 (racemic) [Example 74, rac-2-(N-(4-amino-5-benzoyl-thiazol-2-yl)-3-fluoro-anilino)propanamide] | 190
CC(C(N)=O)N(c1nc(N)c(C(=O)c2ccccc2)s1)c1ccccc1F (racemic) [Example 75, rac-2-(N-(4-amino-5-benzoyl-thiazol-2-yl)-2-fluoro-anilino)propanamide] | 419
Cc1cccc(N(c2nc(N)c(C(=O)c3ccccc3)s2)C(C)C(N)=O)c1 (racemic) [Example 76, rac-2-(N-(4-amino-5-benzoyl-thiazol-2-yl)-3-methyl-anilino)propanamide] | 252
Cc1ccccc1N(c1nc(N)c(C(=O)c2ccccc2)s1)C(C)C(N)=O (racemic) [Example 77, rac-2-(N-(4-amino-5-benzoyl-thiazol-2-yl)-2-methyl-anilino)propanamide] | 533
CC(C(N)=O)N(c1cnn(C)c1)c1nc(N)c(C(=O)c2ccccc2)s1 (racemic) [Example 78, rac-2-[(4-amino-5-benzoyl-thiazol-2-yl)-(1-methylpyrazol-4-yl)amino]propanamide] | 7220
CC(C(N)=O)N(c1cccnc1)c1nc(N)c(C(=O)c2ccccc2)s1 (racemic) [Example 79, rac-2-[(4-amino-5-benzoyl-thiazol-2-yl)-(3-pyridyl)amino]propanamide] | 6790
CC(C(N)=O)N(c1ccc(F)cc1)c1nc(N)c(C(=O)c2ccc(Br)cc2)s1 (racemic) [Example 80, rac-2-(N-[4-amino-5-(4-bromobenzoyl)thiazol-2-yl]-4-fluoro-anilino)propanamide] | 10.8
CCOC(=O)COc1ccc(C(=O)c2sc(N(c3ccc(F)cc3)C(C)C(N)=O)nc2N)cc1 (racemic) [Example 81, rac-ethyl 2-[4-[4-amino-2-(4-fluoro-N-[2-amino-1-methyl-2-oxo-ethyl]anilino)thiazole-5-carbonyl]phenoxy]acetate] | 8.71
Cc1cccc(CNC(=O)COc2ccc(C(=O)c3sc(N(c4ccc(F)cc4)C(C)C(N)=O)nc3N)cc2)c1 (racemic) [Example 83, rac-2-(N-[4-amino-5-[4-[2-(m-tolylmethylamino)-2-oxo-ethoxy]benzoyl]thiazol-2-yl]-4-fluoro-anilino)propanamide] | 24.3
CC(C(N)=O)N(c1ccc(F)cc1)c1nc(N)c(C(=O)c2ccc(OCC(=O)N3CCN(C)CC3)cc2)s1 (racemic) [Example 86, rac-2-(N-[4-amino-5-[4-[2-(4-methylpiperazin-1-yl)-2-oxo-ethoxy]benzoyl]thiazol-2-yl]-4-fluoro-anilino)propanamide] | 759
Cc1cccc(NC(=O)COc2ccc(C(=O)c3sc(N(c4ccc(F)cc4)C(C)C(N)=O)nc3N)cc2)c1 (racemic) [Example 87, rac-2-(N-[4-amino-5-[4-[2-(3-methylanilino)-2-oxo-ethoxy]benzoyl]thiazol-2-yl]-4-fluoro-anilino)propanamide] | 8.53
CC(C(N)=O)N(c1ccc(F)cc1)c1nc(N)c(C(=O)c2ccc(OCC(=O)N3CCC(Cc4ccccc4)CC3)cc2)s1 (racemic) [Example 90, rac-2-(N-[4-amino-5-[4-[2-(4-benzyl-1-piperidyl)-2-oxo-ethoxy]benzoyl]thiazol-2-yl]-4-fluoro-anilino)propanamide] | 63.3
CC(C(N)=O)N(c1ccc(F)cc1)c1nc(N)c(C(=O)c2ccc(OCC(=O)Nc3ccc(C#N)cc3)cc2)s1 (racemic) [Example 92, rac-2-(N-[4-amino-5-[4-[2-(4-cyanoanilino)-2-oxo-ethoxy]benzoyl]thiazol-2-yl]-4-fluoro-anilino)propanamide] | 16.7
COc1cccc(CNC(=O)COc2ccc(C(=O)c3sc(N(c4ccc(F)cc4)C(C)C(N)=O)nc3N)cc2)c1 (racemic) [Example 95, rac-2-(N-(4-amino-5-[4-[2-[(3-methoxyphenyl)methylamino]-2-oxo-ethoxy]benzoyl]thiazol-2-yl]-4-fluoro-anilino)propanamide] | 39

Further lines, results first:

IC50 [nM] | SMILES
89.6 | CC(C)NC(=O)COc1ccc(C(=O)c2sc(N(c3ccc(F)cc3)C(C)C(N)=O)nc2N)cc1 (racemic) [Example 82, rac-2-(N-[4-amino-5-[4-[2-(isopropylamino)-2-oxo-ethoxy]benzoyl]thiazol-2-yl]-4-fluoro-anilino)propanamide]
24.6 | Cc1ccccc1CNC(=O)COc1ccc(C(=O)c2sc(N(c3ccc(F)cc3)C(C)C(N)=O)nc2N)cc1 (racemic) [Example 84, rac-2-(N-[4-amino-5-[4-[2-(o-tolylmethylamino)-2-oxo-ethoxy]benzoyl]thiazol-2-yl]-4-fluoro-anilino)propanamide]
667 | CC(C(N)=O)N(c1ccc(F)cc1)c1nc(N)c(C(=O)c2ccc(OCC(=O)N3CCOCC3)cc2)s1 (racemic) [Example 88, rac-2-(N-[4-amino-5-[4-(2-morpholino-2-oxo-ethoxy)benzoyl]thiazol-2-yl]-4-fluoro-anilino)propanamide]
131 | CC(C(N)=O)N(c1ccc(F)cc1)c1nc(N)c(C(=O)c2ccc(OCC(=O)NCCN3CCCCC3)cc2)s1 (racemic) [Example 89, rac-2-(N-[4-amino-5-[4-[2-oxo-2-[2-(1-piperidyl)ethylamino]ethoxy]benzoyl]thiazol-2-yl]-4-fluoro-anilino)propanamide]
701 | COCCNC(=O)COc1ccc(C(=O)c2sc(N(c3ccc(F)cc3)C(C)C(N)=O)nc2N)cc1 (racemic) [Example 91, rac-2-(N-(4-amino-5-[4-[2-(2-methoxyethylamino)-2-oxo-ethoxy]benzoyl]thiazol-2-yl]-4-fluoro-anilino)propanamide]
187 | C#CCN(C)C(=O)COc1ccc(C(=O)c2sc(N(c3ccc(F)cc3)C(C)C(N)=O)nc2N)cc1 (racemic) [Example 93, rac-2-(N-[4-amino-5-[4-[2-[methyl(prop-2-ynyl)amino]-2-oxo-ethoxy]benzoyl]thiazol-2-yl]-4-fluoro-anilino)propanamide]
25.7 | COc1ccccc1CNC(=O)COc1ccc(C(=O)c2sc(N(c3ccc(F)cc3)C(C)C(N)=O)nc2N)cc1 (racemic) [Example 94, rac-2-(N-[4-amino-5-[4-[2-[(2-methoxyphenyl)methylamino]-2-oxo-ethoxy]benzoyl]thiazol-2-yl]-4-fluoro-anilino)propanamide]
31.4 | CC(C(N)=O)N(c1ccc(F)cc1)c1nc(N)c(C(=O)c2ccc(OCC(=O)NCc3ccccc3F)cc2)s1 (racemic) [Example 96, rac-2-(N-[4-amino-5-[4-[2-[(2-fluorophenyl)methylamino]-2-oxo-ethoxy]benzoyl]thiazol-2-yl]-4-fluoro-anilino)propanamide]
24.7 | CC(C(N)=O)N(c1ccc(F)cc1)c1nc(N)c(C(=O)c2ccc(OCC(=O)NCc3ccc(F)cc3)cc2)s1 (racemic) [Example 97, rac-2-(N-[4-amino-5-[4-[2-[(4-fluorophenyl)methylamino]-2-oxo-ethoxy]benzoyl]thiazol-2-yl]-4-fluoro-anilino)propanamide]
73.5 | CC(C(N)=O)N(c1ccc(F)cc1)c1nc(N)c(C(=O)c2ccc(OCC(=O)NCc3nc4ccccc4[nH]3)cc2)s1 (racemic) [Example 98, rac-2-(N-[4-amino-5-[4-[2-(1H-benzimidazol-2-ylmethylamino)-2-oxo-ethoxy]benzoyl]thiazol-2-yl]-4-fluoro-anilino)propanamide]
